What was measured:
Rattus norvegicus [1] = assay: In vivo Triglyceride lowering activity at a dose of 0.10 % of the diet; format: functional
Rattus norvegicus [2] = assay: In vivo Triglyceride lowering activity at dose as 0.01 % of the diet; format: functional
[3] = biological target: T1, Sterol O-acyltransferase 1 (Rattus norvegicus) (UniProt O70536); assay: In vitro inhibitory activity against acyl coenzyme A:cholesterol acyltransferase; parameters: concentration or dose not given beside the values; conditions: concentration not given here
T1 sequence (whole entry): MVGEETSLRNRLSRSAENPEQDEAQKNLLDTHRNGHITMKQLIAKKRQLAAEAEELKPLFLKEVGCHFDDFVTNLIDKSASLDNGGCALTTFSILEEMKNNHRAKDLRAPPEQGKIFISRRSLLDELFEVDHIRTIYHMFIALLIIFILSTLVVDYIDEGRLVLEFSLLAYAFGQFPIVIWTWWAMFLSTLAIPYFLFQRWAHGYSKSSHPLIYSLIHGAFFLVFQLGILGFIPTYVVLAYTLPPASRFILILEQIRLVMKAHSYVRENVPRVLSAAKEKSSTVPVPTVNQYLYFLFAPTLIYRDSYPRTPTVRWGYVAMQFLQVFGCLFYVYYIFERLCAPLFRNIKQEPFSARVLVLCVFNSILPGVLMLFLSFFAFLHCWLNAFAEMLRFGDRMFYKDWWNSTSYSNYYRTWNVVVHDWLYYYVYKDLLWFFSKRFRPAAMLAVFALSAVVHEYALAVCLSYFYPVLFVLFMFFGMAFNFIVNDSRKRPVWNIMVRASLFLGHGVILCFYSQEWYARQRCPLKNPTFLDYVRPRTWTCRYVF

Rattus norvegicus [4] = assay: In vivo sterol lowering activity, dosed as 0.03 % of the diet; format: functional
Rattus norvegicus [5] = assay: In vivo sterol lowering activity at dose of 0.10 % of the diet; format: functional
Rattus norvegicus [6] = assay: In vivo Triglyceride lowering activity at dose as 0.03 % of the diet; format: functional
Rattus norvegicus [7] = assay: In vivo Sterol lowering activity at dose as 0.01% of the diet; format: functional

Row | Compound | inhibition [3] | serum triglyceride level (% of control) (Rattus norvegicus [1]) | serum triglyceride level (% of control) (Rattus norvegicus [2]) | serum sterol level, percent of control (Rattus norvegicus [4]) | serum sterol level, % of control (Rattus norvegicus [5]) | triglyceride lowering activity (Rattus norvegicus [6]) | serum sterol level, percent of control (Rattus norvegicus [7])
1 | CCOC(=O)c1ccc(NCCCCCCCCCCCCCCC(C)C)cc1 | 0% | <58% | <66% | <85% | <80% | <54% | 87%
2 | CCOC(=O)c1ccc(NCCC[Si](C)(C)C)cc1 | < 59% | <54% | <60% | 86% | <77% | <63% | 99%
3 | CCCCCCCCCCC(Cl)CCCCCNc1ccc(C(=O)OCC)cc1 (configuration not stated) | 13% | <53% | 82% | 91% | 94% | 84% | 98%
4 | CCOC(=O)c1ccc(NCCCCCCCCCCCCCCCCSC(C)=O)cc1 | 0% | <57% | 91% | 96% | 93% | 75% | 98%
5 | CCOC(=O)c1ccc(NCCCCCCCCCCC[Si](C)(C)C)cc1 | 17% | <78% | 113% | 87% | <57% | 111% | 85%
6 | CCOC(=O)c1ccc(NCCCCCCCCCCCCCCCC(F)(F)F)cc1 | 8% | <41% | <75% | <72% | <75% | <47% | <83%
7 | O=C(O)c1ccc(NCC(F)(F)C(F)(F)C(F)(F)C(F)(F)C(F)(F)C(F)(F)C(F)(F)F)cc1 | < 42% | <31% | <51% | <66% | <59% | <40% | <87%
8 | CC(C)(C)CCCCCCCCCCCCNc1ccc(C(=O)O)cc1 | < 59% | <26% | <75% | <77% | <75% | <53% | 94%
9 | CCOC(=O)c1ccc(NCCCCCCCCCCCCCC[Si](C)(C)C)cc1 | < 50% | <62% | <77% | <66% | <53% | <66% | 84%
10 | CCCCCC(=O)CCCCCCCCCCNc1ccc(C(=O)OCC)cc1 | < 44% | <42% | <64% | 100% | 89% | <58% | 99%
11 | CCCCCCCCCCC(C)Nc1ccc(C(=O)O)cc1 (configuration not stated) | < 51% | <58% | <42% | <90% | 92% | <49% | 94%
12 | CCOC(=O)c1ccc(NCCCCCCCCCCCCCCCC(=O)OC)cc1 | 0% | 129% | 140% | 110% | 104% | 173% | 105%
13 | O=C(O)c1ccc(NCCCCCCCCCCCO)cc1 | < 30% | 78% | 111% | 95% | 99% | 101% | 93%

Now from value to compound, other results behind:

Row | inhibition [3] | Compound | serum triglyceride level (% of control) (Rattus norvegicus [1]) | serum triglyceride level (% of control) (Rattus norvegicus [2]) | serum sterol level, percent of control (Rattus norvegicus [4]) | serum sterol level, % of control (Rattus norvegicus [5]) | triglyceride lowering activity (Rattus norvegicus [6]) | serum sterol level, percent of control (Rattus norvegicus [7])
14 | 7% | CCOC(=O)c1ccc(NCCCCCCCCCCCCC(C)(C)C)cc1 | 81% | 99% | <84% | <83% | 83% | <89%
15 | < 61% | CCOC(=O)c1ccc(NCCCCCCCCCCCBr)cc1 | 74% | 83% | 94% | 101% | 83% | 108%
16 | < 21% | CCOC(=O)c1ccc(NC(=O)CCCCCCCCCCCCC[Si](C)(C)C)cc1 | 97% | 99% | 98% | 101% | 91% | 99%
17 | < 43% | COCCCCCCCCCCCCCCCCNc1ccc(C(=O)O)cc1 | <52% | 76% | 96% | <86% | <73% | 97%
18 | 16% | CCCCCCCCCCCCCCCC(=O)Nc1ccc(C(=O)O)cc1 | 105% | 103% | 118% | 112% | 94% | 111%
19 | 18% | CCCCCCCCCCC(=O)CCCCCNc1ccc(C(=O)O)cc1 | <46% | <63% | 90% | <84% | <68% | 95%
20 | < 30% | O=C(O)c1ccc(NCCCCCCCCCCCNc2ccc(C(=O)O)cc2)cc1 | 84% | <68% | 94% | 87% | 85% | 99%
21 | < 15% | CCCC[S+]([O-])CCCCCCCCCCCNc1ccc(C(=O)O)cc1 (configuration not stated) | <66% | 87% | 95% | 91% | 94% | 106%

From ChEMBL document CHEMBL1122462, “Potential antiatherosclerotic agents. 4. [(Functionalized-alkyl)amino]benzoic acid analogues of cetaben” (1983)
